These results are taken from ChEMBL document CHEMBL4840328, “The Phytochemical Scoulerine Inhibits Aurora Kinase Activity to Induce Mitotic and Cytokinetic Defects” (J Nat Prod, 2021).

By IC50 is commonly meant the concentration needed to halve the response being measured. A word on the EC50: it is the concentration at which the effect is half-maximal.

Calls of active or inactive are those of the source. The rule behind the calls is not given here.

In test [1] the test system is HRPE. As to the kind of experiment: Cytotoxicity against HRPE cells overexpressing MYC-H2BGFP assessed as cell viability measured after 72 hrs by MTT assay. As to conditions: Homo sapiens. In kind it is functional, cell-based.
A short description of test [2]: Cytotoxicity against HRPE cells overexpressing MYC assessed as cell viability measured after 72 hrs by MTT assay. In kind it is functional, cell-based. As to conditions: Homo sapiens.
The subject of test [3] is A549. Put plainly: Cytotoxicity against human A549 cells assessed as cell viability measured after 72 hrs by MTT assay. It counts as functional, cell-based. The settings on record: A549, 72 h. On the technique in general: Tetrazolium dyes change colour on reduction, which living cells bring about.
The subject of test [4] is HRPE. As to the kind of experiment: Induction of cell cycle arrest in human RPE cells expressing MYC-Bcl2 assessed as disorganized alpha-tubulin at 4 uM for 6 hrs by immunostaining analysis. It counts as functional, cell-based.
A short description of test [5]: Induction of mitotic arrest in HRPE Cells overexpressing MYC assessed as polyploidy measured for 48 hrs by acridine orange staining based fluorescence microscopic analysis. It counts as functional, tissue-based, Homo sapiens.
Test [6] concerns HRPE. As to the kind of experiment: Induction of cell cycle arrest in HRPE cells overexpressing MYC/Bcl2 assessed as centrosome amplification measured after 6 hrs by DAPI staining based analysis. In kind it is functional. The settings on record: Homo sapiens.
Test [7] deals with HRPE. Put plainly: Induction of cell cycle arrest in human RPE cells expressing MYC-Bcl2 assessed as disorganized NUMA1 at 4 uM for 6 hrs by immunostaining analysis. It counts as functional, cell-based.
Test [8] concerns MDA-MB-231. Put plainly: Cytotoxicity against human MDA-MB-231 cells assessed as cell viability measured after 72 hrs by MTT assay. It counts as functional, cell-based. The settings on record: MDA-MB-231, 72 h.
Test [9] in a line: Cytotoxicity against human HCT116-p53-null cells assessed as cell viability measured after 72 hrs by MTT assay. In kind it is functional, cell-based.
In test [10] the test system is NCI-H23. Put plainly: Cytotoxicity against human NCI-H23 cells harboring MYC assessed as cell viability measured after 72 hrs by MTT assay. In kind it is functional, cell-based. As to conditions: NCI-H23, 72 h.
Test [11] deals with SW480. As to the kind of experiment: Cytotoxicity against human SW480 cells assessed as cell viability measured after 72 hrs by MTT assay. In kind it is functional, cell-based. The settings on record: SW480, 72 h.
The nature of test [12]: Cytotoxicity against HRPE cells overexpressing MYC/Bcl2 assessed as cell viability measured after 72 hrs by MTT assay. As to conditions: Homo sapiens. It counts as functional, cell-based.
Test [13] concerns HRPE. As to the kind of experiment: Induction of mitotic arrest in HRPE Cells overexpressing MYC-Bcl2 measured for 46 to 62 hrs by time-lapse analysis. In kind it is functional, tissue-based. The settings on record: Homo sapiens, dose 2-4 µM, time 46-62 hrs.
The subject of test [14] is HRPE. Put plainly: Induction of mitotic arrest in HRPE Cells overexpressing MYC assessed as polyploidy at 5 uM by acridine orange staining based fluorescence microscopic analysis. In kind it is functional, tissue-based. As to conditions: Homo sapiens.
Test [15] deals with NCI-H460. Put plainly: Cytotoxicity against human NCI-H460 cells assessed as centrosome amplification and declustering by measuring multiple foci by immunostaining analysis. In kind it is functional, cell-based. As to conditions: time 72.0 hrs.
Test [16] concerns HeLa. Put plainly: Cytotoxicity against human HeLa cells assessed as cell viability measured after 72 hrs by MTT assay. In kind it is functional, cell-based.
Test [17] concerns the target T1, Aurora kinase A (Homo sapiens) (UniProt O14965).
T1 sequence (whole entry): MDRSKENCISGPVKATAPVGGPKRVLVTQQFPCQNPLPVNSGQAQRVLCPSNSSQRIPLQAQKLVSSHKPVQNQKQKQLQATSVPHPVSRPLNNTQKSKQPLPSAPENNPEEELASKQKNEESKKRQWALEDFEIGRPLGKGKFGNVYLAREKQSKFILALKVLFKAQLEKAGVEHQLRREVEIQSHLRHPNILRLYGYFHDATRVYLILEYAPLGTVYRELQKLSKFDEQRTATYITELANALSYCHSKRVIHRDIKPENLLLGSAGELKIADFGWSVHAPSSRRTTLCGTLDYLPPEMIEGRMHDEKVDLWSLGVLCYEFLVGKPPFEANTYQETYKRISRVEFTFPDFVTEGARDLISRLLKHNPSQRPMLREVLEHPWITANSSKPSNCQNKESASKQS
As to the kind of experiment: Inhibition of AURKA (unknown origin) in HRPE cells overexpressing MYC/Bcl2 assessed as inhibition of autophosphorylation of threonine 288 at 20 uM measured for 6 hrs by immunostaining based fluorescence microscopic analysis. It counts as cell-based.

Test [18] has as its system HRPE. As to the kind of experiment: Induction of cell cycle arrest in human RPE cells expressing MYC-Bcl2 assessed as foci in colocalized Aurora kinase A at 4 uM for 6 hrs by immunostaining analysis. It counts as functional, cell-based.
The target in test [19] is Aurora kinase B (Homo sapiens) (UniProt Q96GD4). Put plainly: Inhibition of AURKB (unknown origin) in HRPE cells overexpressing MYC/Bcl2 assessed as decrease in H3PS10 fluorescence intensity at 20 uM measured for 6 hrs by immunostaining based fluorescence microscopic analysis. In kind it is cell-based.
Test [20] has as its system HRPE. As to the kind of experiment: Induction of mitotic arrest in HRPE Cells overexpressing MYC at 20 uM by acridine orange staining based fluorescence microscopic analysis. In kind it is functional, tissue-based. As to conditions: Homo sapiens.
A short description of test [21]: Cytotoxicity against human wild type p53HCT116 cells assessed as cell viability measured after 72 hrs by MTT assay. In kind it is functional, cell-based. The settings on record: p53HCT116, 72 h.
The nature of test [22]: Induction of mitotic arrest in HRPE Cells overexpressing MYC measured for 24 hrs by acridine orange staining based fluorescence microscopic analysis. It counts as functional, tissue-based, Homo sapiens.
In test [23] the test system is HRPE. Put plainly: Induction of cell cycle arrest in human RPE cells expressing MYC-Bcl2 assessed as foci in colocalized gamma-tubulin at 4 uM for 6 hrs by immunostaining analysis. In kind it is functional, cell-based.

Sequence of Aurora kinase B (Homo sapiens) (Q96GD4 whole entry): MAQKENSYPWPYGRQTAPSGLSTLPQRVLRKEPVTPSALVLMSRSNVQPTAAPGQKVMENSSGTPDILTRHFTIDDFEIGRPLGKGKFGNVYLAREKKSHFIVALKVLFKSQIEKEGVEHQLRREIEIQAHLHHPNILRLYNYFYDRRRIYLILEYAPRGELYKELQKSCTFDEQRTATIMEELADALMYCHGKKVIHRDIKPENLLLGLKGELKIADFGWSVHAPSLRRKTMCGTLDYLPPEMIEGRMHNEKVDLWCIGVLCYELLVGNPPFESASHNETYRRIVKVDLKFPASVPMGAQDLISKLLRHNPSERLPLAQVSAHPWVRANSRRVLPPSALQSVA

Turning to `COc1cc(Nc2ncc3c(n2)-c2ccc(Cl)cc2C(c2c(F)cccc2OC)=NC3)ccc1C(=O)O`, the result in [1] was Active.
For `COc1cc2c(cc1O)[C@@H]1Cc3ccc(OC)c(O)c3CN1CC2` [SCOULERINE], the 50% inhibitory concentration (IC50) in test [2] was 4.07 µM; in test [3], 26.3 µM; in test [8], 7.32 µM; in [9] it was 5.48 µM; in [10], 2.54 µM; in test [11] it was 4.24 µM. For the same compound, the half-maximal inhibitory concentration (IC50) in test [12] came to 4.62 µM; in test [16] it was 6.74 µM; in [21], 6.81 µM. Also, the result in test [4], in test [7], in test [14], in test [15], in test [18] and in test [23] was Active. Besides, the EC50 in test [5] is 3.6 µM; in test [22] it was 3.54 µM. For the same compound, the outcome in test [6], in [1] and in [20] was inactive. The Activity result in test [13] is “Dose-Dependent Effect”. In addition, the inhibition result in [17] and in [19] was “Active” each time.
In the case of `CCN(CCCOc1ccc2c(Nc3cc(CC(=O)Nc4cccc(F)c4)[nH]n3)ncnc2c1)CCOP(=O)(O)O`, the outcome in test [7] was inactive.
Consider `COc1cc2c(cc1O)[C@@H]1Cc3ccc(O)c(OC)c3CN1CC2`, for which the result in test [20] was inactive.
Regarding `COc1cc2c(cc1OC)[C@@H]1Cc3ccc(OC)c(OC)c3CN1CC2`, in test [20], the result was inactive.
